Results published in patent publication US20240016900A1, “COLLAGEN PEPTIDE-BASED MEDICAMENT COMPOSITIONS AND USES THEREOF” (SUSTAIN HOLDINGS, LLC, priority 2022, published 2024).

Legend:
[1] = cited from earlier work; for melting temperature of a triple helix: Sakakibara et al. 1973
[2] = biological target: Human type I collagen (Homo sapiens, UniProt P02452+P08123); experiment: AFM of type I collagen plated on substrates, MMP1 with or without CMP13; format: biochemical; conditions: collagen 10 μg/ml; MMP1 alone 60 ng/ml for 30 minutes
Sequence of Human type I collagen (P02452 162-1218 limits assumed): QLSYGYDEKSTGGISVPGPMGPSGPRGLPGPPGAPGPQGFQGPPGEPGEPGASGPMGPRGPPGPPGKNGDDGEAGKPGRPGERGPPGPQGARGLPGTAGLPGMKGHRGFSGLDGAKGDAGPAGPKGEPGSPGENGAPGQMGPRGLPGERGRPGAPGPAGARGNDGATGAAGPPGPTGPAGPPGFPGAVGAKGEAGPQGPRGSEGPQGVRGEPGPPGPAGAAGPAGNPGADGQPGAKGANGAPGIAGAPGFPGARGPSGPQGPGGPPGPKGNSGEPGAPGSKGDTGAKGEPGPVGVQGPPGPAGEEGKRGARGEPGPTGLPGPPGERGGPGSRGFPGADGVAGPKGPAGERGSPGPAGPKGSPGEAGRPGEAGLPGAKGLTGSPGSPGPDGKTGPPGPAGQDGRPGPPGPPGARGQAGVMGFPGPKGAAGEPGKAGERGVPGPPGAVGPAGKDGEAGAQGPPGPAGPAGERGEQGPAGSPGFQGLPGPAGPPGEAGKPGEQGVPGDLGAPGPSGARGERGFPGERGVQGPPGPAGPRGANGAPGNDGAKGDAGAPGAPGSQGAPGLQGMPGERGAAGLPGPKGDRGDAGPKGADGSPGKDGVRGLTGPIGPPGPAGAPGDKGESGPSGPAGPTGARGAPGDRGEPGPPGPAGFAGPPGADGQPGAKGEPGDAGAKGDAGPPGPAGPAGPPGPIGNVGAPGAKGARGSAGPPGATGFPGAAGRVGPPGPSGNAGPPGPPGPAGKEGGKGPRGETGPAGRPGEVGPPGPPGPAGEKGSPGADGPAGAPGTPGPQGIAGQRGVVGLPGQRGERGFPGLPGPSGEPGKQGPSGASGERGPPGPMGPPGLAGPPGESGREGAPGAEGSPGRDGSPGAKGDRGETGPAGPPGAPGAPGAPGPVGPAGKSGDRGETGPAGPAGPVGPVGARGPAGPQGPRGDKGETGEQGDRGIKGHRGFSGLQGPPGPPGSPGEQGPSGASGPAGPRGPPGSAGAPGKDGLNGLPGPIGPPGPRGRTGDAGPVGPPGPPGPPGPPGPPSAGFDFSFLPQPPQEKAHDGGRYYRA
Sequence of Human type I collagen (P08123 80-1119 limits assumed): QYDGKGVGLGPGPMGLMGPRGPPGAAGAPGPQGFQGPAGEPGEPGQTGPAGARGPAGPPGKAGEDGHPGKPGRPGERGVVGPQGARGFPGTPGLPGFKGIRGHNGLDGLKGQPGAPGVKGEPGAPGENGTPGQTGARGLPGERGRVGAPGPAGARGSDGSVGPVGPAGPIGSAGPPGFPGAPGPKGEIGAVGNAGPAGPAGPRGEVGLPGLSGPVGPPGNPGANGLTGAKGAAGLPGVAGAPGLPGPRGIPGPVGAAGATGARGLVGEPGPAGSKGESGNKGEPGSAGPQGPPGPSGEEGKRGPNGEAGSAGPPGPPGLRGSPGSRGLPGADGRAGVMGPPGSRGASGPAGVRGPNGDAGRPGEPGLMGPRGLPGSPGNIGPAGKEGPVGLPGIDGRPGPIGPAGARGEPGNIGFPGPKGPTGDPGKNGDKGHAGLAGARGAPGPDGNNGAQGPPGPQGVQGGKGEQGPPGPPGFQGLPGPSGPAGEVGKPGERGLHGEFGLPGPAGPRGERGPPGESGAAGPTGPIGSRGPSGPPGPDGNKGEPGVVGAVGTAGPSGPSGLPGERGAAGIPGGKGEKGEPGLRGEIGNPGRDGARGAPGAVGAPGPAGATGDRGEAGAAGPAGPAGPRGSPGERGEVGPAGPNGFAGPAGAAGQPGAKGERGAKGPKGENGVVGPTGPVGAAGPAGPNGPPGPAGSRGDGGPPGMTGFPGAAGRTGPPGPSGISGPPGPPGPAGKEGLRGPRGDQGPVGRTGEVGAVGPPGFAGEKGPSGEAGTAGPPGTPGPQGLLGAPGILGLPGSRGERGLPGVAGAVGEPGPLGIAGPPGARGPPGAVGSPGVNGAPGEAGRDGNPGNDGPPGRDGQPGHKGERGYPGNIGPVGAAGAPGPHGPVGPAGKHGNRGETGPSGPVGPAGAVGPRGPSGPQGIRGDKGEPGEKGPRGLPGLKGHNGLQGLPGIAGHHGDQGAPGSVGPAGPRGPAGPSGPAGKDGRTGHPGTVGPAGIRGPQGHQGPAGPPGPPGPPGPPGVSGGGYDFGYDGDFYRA
Excerpt: In untreated (baseline) samples, extensive and multilamellar networks of collagen fibers, fibrils and bundles could be readily observed (FIGS. 15A, 15B).

[3] = system: peripapillary sclera; experiment: Fluorescence microscopy of disrupted (RCHP) and intact (Col1) collagen in explants, peripapillary sclera; parameters: species or system mouse; conditions: MMP1 alone 30 minutes
Experimental: (§1) To examine the distribution of disrupted and intact collagen in such explants, samples prepared as above were treated with DAPI (to localize cell nuclei), a fluorescently labeled antibody against type I collagen (“Col1”), and a Cy3-labeled collagen hybridizing peptide (“RCHP”) which binds only to areas of disrupted collagen.

[4] = system: glial lamina at the optic nerve head; experiment: AFM measurement of Young's Modulus and morphology in glial lamina of mouse eye explants after MMP1 treatment, with or without CMP; conditions: MMP1 alone, 5 μg/ml for 30 minutes, compared with untreated baseline
Excerpt: To conduct these studies, mouse eyes were explanted and thin sectioned as described in Example 2 above, and sections of the glial lamina and the peripapillary sclera were examined by atomic force microscopy (AFM).
To increase the statistical significance of these studies, AFM was used to make Young's Modulus measurements across a large number of points in multiple individual locations in a given sample of glial lamina, as was done in Example 2 for peripapillary sclera.

[5] = system: peripapillary sclera in mouse eyes; experiment: AFM measurement of Young's Modulus in mouse peripapillary sclera explants after MMP treatment, with or without CMP; conditions: MMP1 alone, 50 μg/ml for 30 minutes, compared with untreated baseline
Excerpt: Therefore, to examine the possible therapeutic effects of CMPs of the invention in treating myopia, studies were designed to test the effects of certain CMPs conjugates in a model of the in vivo setting—an ex vivo study of the collagen matrix in the peripapillary sclera in mouse eyes. To conduct these studies, mouse eyes were explanted and thin sectioned, and sections of the peripapillary sclera (the scleral area adjacent to the optic nerve head) were examined by atomic force microscopy (AFM).
To examine the impact of matrix metalloproteinase (MMP) treatment, with or without subsequent CMP treatment, on the stiffness of the mouse peripapillary scleral explants, samples were treated with MMP (50 μg/ml for 30 minutes), followed by either a PBS washout or by treatment with a CMP-containing formulation of the invention for 60 minutes.
To increase the statistical significance of these studies, AFM was used to make Young's Modulus measurements across a large number of points in multiple individual locations in a given sample of peripapillary sclera.

[6] = system: glial lamina; experiment: Fluorescence microscopy of disrupted (RCHP) and intact (Col1) collagen in explants, glial lamina; parameters: species or system mouse; conditions: MMP1 alone 30 minutes
Experimental: as §1

Substance | melting temperature of a triple helix [1] | rate at which chains fold into a triple helix ([1]; relative to (ProProGly)10, Chopra and Ananthanarayanan 1982) | collagen fiber/fibril networks on substrate (AFM) [2] | disrupted collagen (RCHP) [3] | Young's Modulus (glial lamina stiffness) [4] | Young's Modulus (glial lamina stiffness) ([4]; listed as MMP) | Young's Modulus (scleral stiffness) [5] | Young's Modulus (scleral stiffness) ([5]; listed as MMP) | disrupted collagen (RCHP) [6] | intact collagen (Col1) [6]
(ProHypGly)10 | 58 °C | substantially greater | – | – | – | – | – | – | – | –
MMP1: matrix metalloproteinase 1, used to disrupt collagen in explants and on substrates | – | – | substantial amount of disorganized collagen and little remaining fiber/fibril formation | large amount of disrupted collagen | significant decrease in Young's Modulus | adversely affecting the stiffness of the glial lamina | significant decrease in Young's Modulus | significantly reduced the scleral stiffness | large amount of disrupted collagen | nearly devoid of intact collagen
(ProProGly)10 | 24 °C | – | – | – | – | – | – | – | – | –
